The record followed here is US20230157996A1, “SMALL-MOLECULE INHIBITOR TARGETING EB VIRUS NUCLEAR ANTIGEN PROTEIN, PREPARATION METHOD AND USE THEREOF” (priority 2020, published 2023).

Assay [1] relates to C666-1 cells. Description: C666-1 cell viability, EC50 from 8-point dilution (Resazurin). In kind it is cell-based. The conditions noted are these: 100-0.78 μmol/L, read-out: EC50 Quantitation. How it is done: In order to assess the effect of the EBNA1 inhibitor at the cellular level, the cytotoxicity assay was performed. The EBNA1 inhibitor selectively killed EBV-positive cell lines ([…]-1 cells), but had no toxicity to EBV-negative cell lines (HONE1 cells and HK1 cells). In the test, 100 μL different cell lines were inoculated in a transparent 96-well plate, each well containing 5×10^3 […]-1 cells. After the cells were cultured in an incubator with 5% carbon dioxide at 37° C. for 24 hours, 10 μL compound at a concentration range from 1 mmol/L to 7.8 μmol/L was added into each well (8 points, 2-fold dilution, the final concentration was 100-0.78 μmol/L), and treated in the incubator with carbon dioxide at 37° C. for 72 hours. The cell viability was assessed using a redox indicator Resazurin. Specifically, 10 μL Resazurin at a concentration of 600 μmol/L was added into each well, and incubated at 37° C. for 3 hours, and a Tecan microplate reader was used to detect the fluorescence signal at an excitation wavelength of 560 nm and an emission wavelength of 590 nm. A software was used to fit the inhibition curve and calculate the concentration for 50% of maximal effect (EC50). The selectivity of compound activity was assessed by comparing the EC50 of EBV-positive and EBV-negative cell lines.
A general note: The colour change of resazurin is a common sign of viable cells or microbes.

Assay [2] concerns C666-1 cells. Description: C666-1 cell viability single concentration (50 μM) inhibition rate (Resazurin). The conditions noted are these: Homo sapiens, C6661, 72 h, C666-1 cells. In kind it is cell-based. In short, it runs like this:
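Resazurin fluorescence (560/590 nm, 3 h development) gave the proliferation inhibition rate, normalised to DMSO-treated and cell-free blank wells. Compound was tested at a single 50 μmol/L final concentration on C666-1 cells for 72 h at 37° C, with duplicate wells, after 24 h seeding.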

Where [3] appears, read: 50 μM compound, 72 hours, read-out: C666-1 cell viability single concentration (50 μM) inhibition rate, Ratio* (Inh %).

Like-named read-outs stand apart in the source and are kept apart here.

Broadly, the EC50 is the concentration that produces a half-maximal response.

`COC(=O)c1cccc(C#CN(Cc2ccccc2)S(C)(=O)=O)c1-n1cccc1` [Example 381, Methyl 3-((N-benzylmethylsulfonamido)ethynyl)-2-(1H-pyrrol-1-yl)benzoate]: the half-maximal effective concentration (EC50) with C666-1 cells [1] (Homo sapiens, C6661, 72 h) is above 100 µM. Besides, the inhibition at 50 µM was 30 to 50% in the assay with C666-1 cells [2] (setting [3]) and 30 to 50% in the assay on C666-1 cells [2] (single concentration, read-out: Inhibition Rate (Inh %)).

Take `COC(=O)c1cccc(C#CN(C)S(=O)(=O)c2ccc(C)cc2)c1-n1cccc1` [Example 383]: the EC50 with C666-1 cells [1] (72 hours) was above 100 µM; in the assay with C666-1 cells [1] (Homo sapiens, C6661, 72 h), below 50 µM. For the same compound, in the assay on C666-1 cells [2] (setting [3]), the inhibition at 50 µM is 10 to 30%.
